From patent US20210052566A1, “METHODS FOR TREATING HEPATITIS B VIRUS (HBV) INFECTION” (INSERM (INSTITUT NATIONAL DE LA SANTÉ ET DE LA RECHERCHE …, priority 2018, published 2021)

What was measured:
[1] = biological target: SRSF10 (Homo sapiens, UniProt O75494); conditions: cited from earlier work
[2] = tested on: HBV genotype D; test: Anti-HBV properties in persistently infected dHepaRG cells, genotype D (post-infection treatment); assay type: cell-based, Hepatitis B virus
Description: (§1) FIG. 1. Experimental outlines. Treatment schemes: (a) Treatments in pre-infection: dHepaRG cells were treated for 24 h (at day −1) with 100 nM of PreS1 peptide (PreS1-pep) or 10 μM of 1C8, or untreated (NT). At day 0, cells were inoculated with HBV (MOI=250) or with HDV (MOI=25) in the presence of drugs for 24 h. For the tenofovir control (TDF at 10 μM), cells were treated at day 1 and 4 post-infection. Supernatant and cells were harvested at day 7 post-infection. (b) Treatments in post-infection: dHepaRG cells were inoculated with HBV (MOI=250) or with HDV (MOI=25). At days 4, 7 and 9 post infection, cells were treated with TDF 10 μM, lamivudine (3TC) at 10 μM, 1C8 10 μM or untreated (NT). Supernatant and cells were harvested at day 11 postinfection.
(§2) FIG. 5. Anti-HBV properties of 1C8 in persistently infected dHepaRG cells: genotype D. Differentiated HepaRG were infected with HBV genotype D at a MOI of 100 vge/cell or HDV genotype 1 at a MOI of 10 vge/cell for 7 days before being treated trice every 2-3 days with indicated molecules at a concentration of 10 microM. A) Total DNA and RNA were extracted from cells and subjected to qPCR and RTqPCR to detect HBV cccDNA, total HBV RNA or pregenomic HBV RNA. B) HBs and HBe secreted antigens in supernatant were quantified by ELISA, whereas HBV DNA contained in virions was quantified by qPCR after viral nucleic acid extraction from supernatant. C) Intracellular HDV RNA was quantified by RTqPCR after total RNA extraction from cells. D) Viability was monitored in 1C8-treated (or control treated; puromycin is a positive toxic molecule) cells by CellTiter-Glo® luminescent cell viability assay. Results are the mean+SEM of n=3 performed with 3 different differentiations of HepaRG. Statistics were done by two-tailed Mann-Whitney test, with following significativity: *P<0.05, **P<0.01, ***P<0.001, ****P<0.0001. nd=not determined
Human liver progenitor HepaRG cells were cultured in Williams medium (ThermoFisher) supplemented with 10% of FBS (Perbio), Penicillin/Streptomycin (500 U/mL), glutamine (2 mM), hydrocortisone Upjohn (2.5 mg/L; Serb laboratory), insulin (5 mg/L; Sigma Aldrich). For the differentiation process 2% of DMSO was added to the above-described supplemented Williams medium. […] The multiplicity of infection (MOI; expressed as virus genome equivalent/cell) is indicated in the figure legends, but was of 100 vge/cell if not precised.
(§3) From cell culture supernatants, secreted HBe and HBs antigens were quantified by ELISA, using a chemiluminescence immunoassay kit (Autobio, China) following manufacturer's instructions. […]
A HBV standard was used for quantification of extracellular viral DNA and RNA. […]

[3] = biological target: SRSF1 (Homo sapiens, UniProt Q07955); conditions: cited from earlier work
SRSF1, sequence (Q07955 whole entry, species assumed): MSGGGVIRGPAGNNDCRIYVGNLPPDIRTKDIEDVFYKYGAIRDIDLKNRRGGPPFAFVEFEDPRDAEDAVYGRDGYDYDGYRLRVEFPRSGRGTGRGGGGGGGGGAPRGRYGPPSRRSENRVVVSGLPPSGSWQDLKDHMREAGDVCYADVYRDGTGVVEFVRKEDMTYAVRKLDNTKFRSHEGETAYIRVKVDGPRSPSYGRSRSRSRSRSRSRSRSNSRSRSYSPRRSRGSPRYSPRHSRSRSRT

[4] = tested on: HBV genotype C; test: Anti-HBV properties in persistently infected dHepaRG cells, genotype C; assay type: cell-based, Hepatitis B virus; conditions: 10 microM three times
Description: as §1, with “Supernatant and cells were harvested at day 11 postinfection.” left out
FIG. 6. […] B) HBs and HBe secreted antigens in supernatant were quantified by ELISA, whereas HBV DNA contained in virions was quantified by qPCR after viral nucleic acid extraction from supernatant. […] Statistics were done by two-tailed Mann-Whitney test, with following significativity: *P<0.05, **P<0.01, ***P<0.001, ****P<0.0001. nd=not determined. […]
as §3
A HBV standard was used for quantification of extracellular viral DNA and RNA. […] CccDNA was normalized to β-Globin quantification. […]

[5] = tested on: HepaRG cells; test: Cytotoxicity, CellTiter-Glo Luminescent Cell Viability Assay; assay type: cell-based, Human; conditions: highest concentration tested 40 microM
Text: as §2
Cytotoxicity was measured in HepaRG cells treated with drugs as in experimental schemes presented if FIG. 1 with the “CellTiter-Glo® Luminescent Cell Viability Assay” from Promega, by following manufacturer's instructions.

[6] = tested on: HIV-1; conditions: cited from earlier work

SRSF10, sequence (O75494 whole entry): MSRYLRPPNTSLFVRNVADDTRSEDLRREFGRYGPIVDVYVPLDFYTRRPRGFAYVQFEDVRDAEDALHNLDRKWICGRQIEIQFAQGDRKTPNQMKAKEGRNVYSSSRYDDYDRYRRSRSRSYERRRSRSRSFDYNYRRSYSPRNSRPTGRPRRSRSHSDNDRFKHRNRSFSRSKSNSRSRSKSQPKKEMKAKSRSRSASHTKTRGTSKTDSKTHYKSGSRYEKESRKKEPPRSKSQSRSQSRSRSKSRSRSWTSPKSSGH

## Cn1ccc(=O)c(C(=O)Nc2nsc3ccc([N+](=O)[O-])cc23)c1 [1C8, 4-pyridinonebenzisothiazole carboxamide]
[1]
  SRSF10 phosphorylation at serine 133: inhibit SRSF10 phosphorylation at serine 133
[2]; 10 microM three times, ELISA
  reduction of secretion of viral antigens (HBs and HBeAg) in cell culture supernatant: 60-70%
[2]; 10 microM three times, qPCR
  reduction of HBV virions (secreted HBV DNA) in cell culture supernatant: 60-70%
[2]; MOI 100 vge/cell, treated three times every 2-3 days with 10 microM
  reduction of the accumulation of intracellular HBV RNA: 60-70%
[3]
  inhibition of SRSF1: does not inhibit
[4]
  antiviral properties against genotype C virus: retained antiviral properties against this strain, although with a slightly reduced efficacy
[5]
  concentration toxic for cells (viability, CellTiter-Glo): > 40 µM
[6]
  inhibition of HIV-1 replication: strong inhibitor
